Source: the supplement of paper PMC6723410

Test system: GUMC-403
Assay: viability at highest tested concentration (max response) relative to DMSO (% of DMSO control); higher = less cytotoxic
Settings: library / dose series: MIPE library, 11-point 1:3 dilution, 48 h
Outline: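 The value is viability at the highest tested concentration, expressed relative to vehicle control. Patient-derived GUMC-403 papilloma cells, grown by conditional reprogramming, were seeded at 700/well in 5 μL F + Y medium in 1536-well plates. After an overnight incubation at 37 °C, they received 23 nL of compound by pin tool for 48 h. Readout was CellTiter-Glo luminescence on a ViewLux, normalised to vehicle wells (100%) and empty wells (0%).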

SMILES | viability (top concentration 46.1 µM) | also measured
C[N]1C2=C(SC(=C2)[S+](C)[O-])C\3=C1C(=O)N(CC4=CC(=CC=C4)N)\N=C3 (configuration not stated) | 106 | –
CC(C)(C)c1[nH]cnc1/C=c1\[nH]c(=O)/c(=C/c2ccccc2)[nH]c1=O | – | viability (top concentration 92.2 µM): 95.3
O=P(O)(O)C(O)(Cn1ccnc1)P(=O)(O)O | – | viability (top concentration 23 µM): 122
O=C(NCc1ccccc1)[C@H](Cc1ccccc1)NC(=O)[C@H]1O[C@@H]1C(=O)NCCc1ccc(O)cc1 | 107 | –
CC/1=C(/N2[C@H](SC1)[C@H](NC(=O)C(N)C3=CC=CC=C3)C2=O)C(O)=O (some centres not stated) | 106 | –
CNC(=O)c1cc(Oc2ccc(NC(=O)Nc3ccc(Cl)c(C(F)(F)F)c3)c(F)c2)ccn1 | 101 | –
Cc1ccc2c(=O)c3cccc(CC(=O)O)c3oc2c1C | 6.71 | –
CC(C)NCC(O)c1ccc(NS(C)(=O)=O)cc1 (configuration not stated) | 123 | –
CC1COC2=C3N1\C=C(C(O)=O)/C(=O)C3=CC(=C2N4CCN(C)CC4)F (configuration not stated) | 105 | –
Clc1ccc2ncc(-c3cccc(NC4CNC4)n3)n2c1 | 124 | –
Oc1cc(O)cc(/C=C/c2ccc(O)c(O)c2)c1 | 91.7 | –
Cc1cn([C@@H]2O[C@H](CO)[C@@H](O)[C@@H]2F)c(=O)[nH]c1=O | 128 | –
CCOc1cc(/C=C2/C(=O)N(c3ccccc3)N=C2C)cc(Cl)c1OCC(=O)OC | 99.2 | –
CCCCCCCCCCCC(CC1OC(=O)C1CCCCCC)OC(=O)C(CC(C)C)NC=O (configuration not stated) | 101 | –
C[C@H]1C[C@H]2[C@@H]3CCC4=CC(=O)C=C[C@]4(C)[C@@]3(F)[C@@H](O)C[C@]2(C)[C@@]1(O)C(=O)CO | 142 | –
C[S+]([O-])(=O)C1=CC=C(C=C1)C/2=C(/C(=O)OC2)C3=CC=CC=C3 | 122 | –
COC(=O)[C@H](Cc1ccccc1)NC(=O)[C@@H](N)CC(=O)O | 102 | –
FC(F)(F)C1=CC=C2C(SCCCCCO\C3=C\O\C(CN4CCOCC4)=C/C3=O)=CC=NC2=C1 | 110 | –
COc1ccc2c(c1OC)C(=O)O[C@H]2[C@H]1c2c(cc3c(c2OC)OCO3)CCN1C | 103 | –

SMILES | viability (top concentration 46.1 µM) | also measured
CN1c2ccccc2C(=O)N2CCc3c([nH]c4ccccc34)C21 (configuration not stated) | 102 | –
CCc1ccc(/C=C2/SC(=S)NC2=O)cc1 | 106 | –
CN(C)Cc1cccc(N/C(=C2\C(=O)Nc3cc(C(=O)N(C)C)ccc32)c2ccccc2)c1 | 95.1 | –
NC\1=N\C(=O)N(\C=N1)[C@H]2C[C@H](O)[C@@H](CO)O2 | 105 | –
N#CC1(c2cccc(C(=O)Nc3cc(Oc4ccc5nc(NC(=O)C6CC6)sc5n4)ccc3F)c2Cl)CC1 | 71.8 | –
O=C(c1ccc(F)c(F)c1Nc1ccc(I)cc1F)N1CC(O)([C@@H]2CCCCN2)C1 | 52.2 | –
CN(C)CC(=O)N1CCC(CC1)C2=CC=C(NC(=O)C3=NC(=C[NH]3)C#N)C(=C2)\C4=C\CCCC4 | 129 | –
Clc1cccc(-c2nnnn2Cc2cccnc2)c1Cl | 113 | –
Oc1ccc(/C=C/c2cc(O)cc(O)c2)cc1 | 96.3 | –
OC[C@H]1O[C@H]([C@H](O)[C@@H]1O)N2\C=C/C(=O)NC2=O | 121 | –
COc1cc(C(C)C)c(Oc2cnc(NC(CO)CO)nc2N)cc1I | 115 | –
CCCCn1c(=O)n(Cc2ccccc2F)c(=O)c2nc(Cc3ccc(NC(C)=O)cc3)[nH]c21 | 94 | –
COc1ccc2[nH]c([S+]([O-])Cc3ncc(C)c(OC)c3C)nc2c1 (configuration not stated) | 88.8 | –
Cn1cnc(N)c2ncnc1-2 | 82.9 | –
O=C1CCCC(=O)C1C(=O)c1ccc(C(F)(F)F)cc1[N+](=O)[O-] | 104 | –
COc1cc2c(cc1OC)CC(=O)N(CCCN(C)C[C@H]1Cc3cc(OC)c(OC)cc31)CC2.Cl | 129 | –
c1cc(CN2CCCNCCNCCCNCC2)ccc1CN1CCCNCCNCCCNCC1 | 144 | –
Clc1cccc(-n2nnnc2NCc2ccccc2Oc2ccccn2)c1Cl | 116 | –
